Strand notation (5' to 3'): a small letter for the sugar, then the base; units joined by * are phosphorothioate-linked, units joined directly phosphodiester-linked; [ ] holds rarer units or linkages, { } end groups; capitals alone tell only the bases. [ms] = mesyl phosphoramidate linkage; e = 2'-O-(2-methoxyethyl) (MOE); k = constrained ethyl (cEt); [5mC] = 5-methylcytosine; d = 2'-deoxy (DNA)
Experiments:
human APOE RNA [1] = assay: Dose-dependent inhibition of human APOE RNA in HepG2 cells, electroporation, 24 hours (Example 6); type: cell-based
Protocol: Modified oligonucleotides selected from the examples above were tested at various doses in HepG2.
HepG2 cells plated at a density of 50,000 cells per well were treated by electroporation with various concentrations of modified oligonucleotide as specified in the tables below. […] APOE RNA levels were measured using the human primer probe set RTS3073 (described herein above). APOE RNA levels were normalized to human GAPDH. Human GAPDH was amplified using human primer probe set RTS 104 (described herein above). Results are presented as percent APOE RNA, relative to the amount of APOE RNA in untreated control cells (% UTC). The half maximal inhibitory concentration (IC50) of each modified oligonucleotide was calculated in GraphPad Prism 10 (GraphPad Software, San Diego, CA) and is also presented in the tables below.

human APOE RNA [2] = assay: Activity in APOE C57BL/6NTac-Apoeem7250 knock-in mice, single ICV bolus, 16 weeks (Example 12); type: in vivo; conditions: single ICV bolus 300 μg, 16 weeks post treatment, normalized to mouse Ppia
Summary of the method: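 A single 300 μg intracerebroventricular dose was given, with PBS-treated mice as reference; cortical and spinal cord tissue was taken 16 weeks later. RT-qPCR quantified human APOE RNA, Ppia-normalized, expressed relative to PBS animals (% control).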

human APOE RNA [3] = assay: Activity in APOE C57BL/6NTac-Apoeem7250 knock-in mice, single ICV bolus, 4 weeks (Example 10); type: in vivo; conditions: single ICV bolus 300 μg
Protocol: Modified oligonucleotides described above were tested in the APOE C57BL/6NTac-Apoeem7250 knock-in mouse model described above.
APOE C57BL/6NTac-Apoeem7250 knock-in mice were divided into groups of 2-4 mice each. Each mouse received a single ICV bolus of 300 μg of modified oligonucleotide. A group of 3-4 mice received a single ICV bolus with PBS as a negative control.
Four weeks post treatment, mice were sacrificed and RNA was extracted from cortical brain tissue and spinal cord for quantitative real-time RT-PCR analysis of RNA expression of APOE using human primer probe set RTS3073 (described herein above). APOE RNA levels were normalized to mouse Ppia. Mouse Ppia was amplified using primer probe set m_cyclo24 (described herein above). Results are presented as percent human APOE RNA relative to the amount of human APOE RNA in PBS treated animals, (% control). Each experiment is identified in separate tables below.

human APOE RNA [4] = assay: Dose-dependent inhibition of human APOE RNA in HepG2 cells, electroporation, 50,000 cells per well, RT-PCR normalized to GAPDH (Example 4, Tables 8-10); type: cell-based; conditions: HepG2, electroporation, 24-hour treatment
Summary of the method: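 Readout is percent APOE RNA versus untreated controls, measured by RT-PCR (primer probe set RTS3073) and normalized to human GAPDH. Modified oligonucleotides were delivered by electroporation at varying doses into HepG2 cells plated at 50,000 per well.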

[5] = Cortex, C57BL/6NTac-Apoeem7250 knock-in mice, 4 weeks (Table 22)
[6] = Spinal Cord, C57BL/6NTac-Apoeem7250 knock-in mice, 4 weeks (Table 22)
[7] = cortex, 4 weeks post treatment, normalized to mouse Ppia
[8] = spinal cord, 4 weeks post treatment, normalized to mouse Ppia

Substance | IC50 (human APOE RNA [1]) | APOE RNA (% UTC) (human APOE RNA [1]; 5 nM) | APOE RNA (% UTC) (human APOE RNA [1]; 13 nM) | APOE RNA (% UTC) (human APOE RNA [1]; 33 nM) | APOE RNA (% UTC) (human APOE RNA [1]; 82 nM) | APOE RNA (% UTC) (human APOE RNA [1]; 205 nM) | APOE RNA (% UTC) (human APOE RNA [1]; 512 nM) | APOE RNA (% UTC) (human APOE RNA [1]; 1,280 nM) | APOE RNA (% UTC) (human APOE RNA [1]; 3,200 nM) | APOE RNA (% UTC) (human APOE RNA [1]; 8,000 nM) | APOE RNA (% UTC) (human APOE RNA [1]; 20,000 nM) | APOE RNA (% control) Cortex (human APOE RNA [3]; [5]) | APOE RNA (% control) Spinal Cord (human APOE RNA [3]; [6]) | APOE RNA (% control) Cortex (human APOE RNA [3]; [7]) | APOE RNA (% control) Spinal Cord (human APOE RNA [3]; [8]) | APOE RNA (% UTC) (human APOE RNA [4]; 5 nM) | APOE RNA (% UTC) (human APOE RNA [4]; 33 nM) | APOE RNA (% UTC) (human APOE RNA [4]; 82 nM) | APOE RNA (% UTC) (human APOE RNA [4]; 205 nM) | APOE RNA (% UTC) (human APOE RNA [4]; 512 nM) | further results
1736514 (e[5mC]*eTeT*eG*kG*kT*dG[ms]dA[ms]dA[ms]dT*d[5mC]*dT*dT*dT*dA[ms]dT*eT*eA*eA*eA; antisense) [Compound 1736514] | 670 nM | 121 % UTC | 123 % UTC | 96 % UTC | 77 % UTC | 80 % UTC | 46 % UTC | 33 % UTC | 25 % UTC | 23 % UTC | 6 % UTC | 28 % control | 54 % control |  |  |  |  |  |  |  | APOE RNA (% control) Cortex (human APOE RNA [2]): 39 % control; APOE RNA (% control) Spinal Cord (human APOE RNA [2]): 16 % control
1736492 (e[5mC]*eTeT*eG*eG*eT*dG[ms]dA[ms]dA[ms]dT*d[5mC]*dT*dT*dT*dA[ms]dT*kT*eA*eA*eA; antisense) [Compound 1736492] | 940 nM | 95 % UTC | 87 % UTC | 76 % UTC | 82 % UTC | 71 % UTC | 52 % UTC | 52 % UTC | 41 % UTC | 15 % UTC | 20 % UTC | 45 % control | 46 % control |  |  |  |  |  |  |  | APOE RNA (% control) Cortex (human APOE RNA [2]): 53 % control; APOE RNA (% control) Spinal Cord (human APOE RNA [2]): 52 % control
1736533 (e[5mC]*eT*eT*eG*eGeT*dG[ms]dA[ms]dA[ms]dT*d[5mC]*dT*dT*dT*dA[ms]dT*kT*eA*eA*eA; antisense) [Compound 1736533] | 390 nM | 83 % UTC | 83 % UTC | 78 % UTC | 74 % UTC | 55 % UTC | 50 % UTC | 38 % UTC | 28 % UTC | 13 % UTC | 5 % UTC | 34 % control | 54 % control |  |  |  |  |  |  |  | APOE RNA (% control) Cortex (human APOE RNA [2]): 57 % control; APOE RNA (% control) Spinal Cord (human APOE RNA [2]): 49 % control
1746794 (k[5mC]*kT*kT*dG[ms]dG[ms]dT[ms]dG[ms]dA[ms]dA[ms]dT*d[5mC]*dT*dT*dT*dA[ms]dT*kT*dA[ms]kA*kA; antisense) [Compound 1746794] |  |  |  |  |  |  |  |  |  |  |  |  |  | 76 % control | 41 % control | 119 % UTC | 94 % UTC | 91 % UTC | 67 % UTC | 72 % UTC | APOE RNA (% UTC) (human APOE RNA [4]; 13 nM): 107 % UTC; APOE RNA (% UTC) (human APOE RNA [4]; 1,280 nM): 37 % UTC; APOE RNA (% UTC) (human APOE RNA [4]; 3,200 nM): 16 % UTC; APOE RNA (% UTC) (human APOE RNA [4]; 8,000 nM): 9 % UTC; APOE RNA (% UTC) (human APOE RNA [4]; 20,000 nM): 3 % UTC; IC50 (human APOE RNA [4]): 800 nM
1736528 (e[5mC]*eT*eT*eG*eG*eTdG[ms]dA[ms]dA[ms]dT*d[5mC]*dT*dT*dT*dA[ms]dT*kT*eA*eA*eA; antisense) [Compound 1736528] | 1630 nM | 100 % UTC | 112 % UTC | 107 % UTC | 116 % UTC | 84 % UTC | 62 % UTC | 50 % UTC | 39 % UTC | 23 % UTC | 16 % UTC | 57 % control | 56 % control |  |  |  |  |  |  |  | 
1746793 (k[5mC]*dT[ms]dT[ms]dG[ms]kG*kT*dG[ms]dA[ms]dA[ms]dT*d[5mC]*dT*dT*dT*dA[ms]dT*kT*kA*dA[ms]kA; antisense) [Compound 1746793] |  |  |  |  |  |  |  |  |  |  |  |  |  | 86 % control | 47 % control | 102 % UTC | 96 % UTC | 96 % UTC | 53 % UTC | 54 % UTC | APOE RNA (% UTC) (human APOE RNA [4]; 1,280 nM): 34 % UTC; APOE RNA (% UTC) (human APOE RNA [4]; 3,200 nM): 31 % UTC; APOE RNA (% UTC) (human APOE RNA [4]; 8,000 nM): 1 % UTC; APOE RNA (% UTC) (human APOE RNA [4]; 20,000 nM): 2 % UTC; IC50 (human APOE RNA [4]): 560 nM
1746795 (k[5mC]*kT*dT[ms]kG*dG[ms]dT[ms]dG[ms]dA[ms]dA[ms]dT*d[5mC]*dT*dT*dT*dA[ms]dT*kT*dA[ms]kA*kA; antisense) [Compound 1746795] |  |  |  |  |  |  |  |  |  |  |  |  |  | 75 % control | 75 % control | 119 % UTC | 110 % UTC | 108 % UTC | 99 % UTC | 53 % UTC | APOE RNA (% UTC) (human APOE RNA [4]; 13 nM): 115 % UTC; APOE RNA (% UTC) (human APOE RNA [4]; 1,280 nM): 57 % UTC; APOE RNA (% UTC) (human APOE RNA [4]; 3,200 nM): 28 % UTC; APOE RNA (% UTC) (human APOE RNA [4]; 8,000 nM): 12 % UTC; APOE RNA (% UTC) (human APOE RNA [4]; 20,000 nM): 6 % UTC; IC50 (human APOE RNA [4]): 1290 nM
1746796 (k[5mC]*kT*dT[ms]dG[ms]kG*dT[ms]dG[ms]dA[ms]dA[ms]dT*d[5mC]*dT*dT*dT*dA[ms]dT*kT*dA[ms]kA*kA; antisense) [Compound 1746796] |  |  |  |  |  |  |  |  |  |  |  |  |  | 81 % control | 68 % control | 110 % UTC | 128 % UTC | 137 % UTC | 119 % UTC | 89 % UTC | APOE RNA (% UTC) (human APOE RNA [4]; 13 nM): 126 % UTC; APOE RNA (% UTC) (human APOE RNA [4]; 1,280 nM): 71 % UTC; APOE RNA (% UTC) (human APOE RNA [4]; 3,200 nM): 40 % UTC; APOE RNA (% UTC) (human APOE RNA [4]; 8,000 nM): 28 % UTC; APOE RNA (% UTC) (human APOE RNA [4]; 20,000 nM): 20 % UTC; IC50 (human APOE RNA [4]): 3010 nM

Source: patent US20250353873A1, “COMPOUNDS AND METHODS FOR MODULATING APOE EXPRESSION” (Ionis Pharmaceuticals, Inc., priority 2024, published 2025)
